We go through 29 molecules from patent US20160022701A1, “NEUROACTIVE STEROIDS, COMPOSITIONS, AND USES THEREOF” (SAGE THERAPEUTICS, INC., priority 2013, published 2016).

This test concerns the target T1, NMDA receptor (GRIN1/GRIN2A subunits) (Homo sapiens, UniProt Q05586+Q12879).
T1 construct: expressed in transfected cells; host or cells: HEK 293 cells, stably transfected with GRIN1 and transiently transfected with GRIN2A and CD8
The test is described as follows: NMDA potentiation, whole-cell patch-clamp in HEK cells. The following applies: currents evoked by 30 μM NMDA and 5.0 μM Glycine, holding potential −80 mV; for activation at 0.1 µM: HEK293, compound 0.1 uM, read-out: NMDA 1a2A (%) Potentiation 0.1 uM; for activation at 1 µM: HEK293, compound 1 uM, read-out: NMDA 1a2A (%) Potentiation 1 uM. In kind it is cell-based.

T1 sequence (Q12879 23-1464, other chains not shown): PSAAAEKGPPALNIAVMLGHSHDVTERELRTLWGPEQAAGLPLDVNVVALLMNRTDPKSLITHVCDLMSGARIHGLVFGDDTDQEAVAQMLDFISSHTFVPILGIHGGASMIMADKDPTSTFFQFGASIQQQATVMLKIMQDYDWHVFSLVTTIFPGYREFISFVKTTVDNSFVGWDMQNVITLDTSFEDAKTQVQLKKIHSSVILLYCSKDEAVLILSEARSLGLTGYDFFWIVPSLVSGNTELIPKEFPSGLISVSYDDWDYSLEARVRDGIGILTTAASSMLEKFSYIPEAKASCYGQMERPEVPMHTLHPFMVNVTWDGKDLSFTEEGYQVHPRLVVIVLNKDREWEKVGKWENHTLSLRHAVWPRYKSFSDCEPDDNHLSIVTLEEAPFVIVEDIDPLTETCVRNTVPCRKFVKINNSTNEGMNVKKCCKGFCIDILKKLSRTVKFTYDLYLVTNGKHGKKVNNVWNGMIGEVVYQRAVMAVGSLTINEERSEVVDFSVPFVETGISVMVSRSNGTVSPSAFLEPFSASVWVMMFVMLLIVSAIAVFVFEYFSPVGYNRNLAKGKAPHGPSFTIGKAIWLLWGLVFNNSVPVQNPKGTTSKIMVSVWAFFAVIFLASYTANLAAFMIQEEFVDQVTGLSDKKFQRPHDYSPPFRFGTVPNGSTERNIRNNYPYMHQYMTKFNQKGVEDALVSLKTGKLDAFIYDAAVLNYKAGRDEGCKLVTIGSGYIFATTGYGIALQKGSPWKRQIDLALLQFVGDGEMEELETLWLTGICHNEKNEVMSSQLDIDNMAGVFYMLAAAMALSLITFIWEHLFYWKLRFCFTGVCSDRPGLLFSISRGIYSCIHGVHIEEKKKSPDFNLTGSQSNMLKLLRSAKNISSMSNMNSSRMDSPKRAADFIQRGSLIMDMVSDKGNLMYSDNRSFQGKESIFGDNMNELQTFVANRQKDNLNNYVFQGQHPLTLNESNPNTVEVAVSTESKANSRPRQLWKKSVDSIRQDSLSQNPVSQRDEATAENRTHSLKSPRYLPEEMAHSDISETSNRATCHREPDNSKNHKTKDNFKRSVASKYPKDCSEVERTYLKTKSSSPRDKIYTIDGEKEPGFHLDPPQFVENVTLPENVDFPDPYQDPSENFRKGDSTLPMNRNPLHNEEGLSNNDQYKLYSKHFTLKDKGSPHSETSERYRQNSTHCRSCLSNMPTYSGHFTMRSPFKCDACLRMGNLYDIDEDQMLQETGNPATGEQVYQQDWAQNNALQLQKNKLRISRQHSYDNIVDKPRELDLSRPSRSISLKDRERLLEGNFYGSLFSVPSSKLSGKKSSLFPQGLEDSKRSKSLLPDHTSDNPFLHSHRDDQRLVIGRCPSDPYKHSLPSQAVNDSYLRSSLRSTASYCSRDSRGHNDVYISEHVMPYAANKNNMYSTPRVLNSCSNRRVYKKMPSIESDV

For the molecule `C[C@H](CCC(C)(C)O)[C@H]1CC[C@H]2[C@@H]3CC=C4C[C@@](C)(O)CC[C@]4(C)[C@H]3CC[C@]12C`, the activation at 0.1 µM was 128% and the activation at 1 µM came to 348%. For the molecule `C[C@H](CCC(C)(C)O)[C@H]1CC[C@H]2[C@@H]3CC=C4C[C@@H](O)CC[C@@H]4[C@H]3CC[C@]12C`, the activation at 0.1 µM turned out to be 28% and the activation at 1 µM amounted to 66%. For `C[C@H](CCC1(O)CC1)[C@H]1CC[C@H]2[C@@H]3CC=C4C[C@@H](O)CC[C@]4(C)[C@H]3CC[C@]12C` the same measures were 74% and 171%. For `C[C@H](CC(F)(F)CO)[C@H]1CC[C@H]2[C@@H]3CC=C4C[C@@H](O)CC[C@]4(C)[C@H]3CC[C@]12C` the same measures were 31% and 95%. In the case of `C[C@H](CCCO)[C@H]1CC[C@H]2[C@@H]3CC=C4C[C@@H](O)CC[C@]4(C)[C@H]3CC[C@]12C`, the activation at 0.1 µM amounted to 39% and the activation at 1 µM amounted to 127%. With `C[C@H](CCC(C)(C)O)[C@H]1CC[C@H]2[C@@H]3CC[C@H]4C[C@@H](O)CC[C@@H]4[C@H]3CC[C@]12C`, the activation at 0.1 µM was 19% and the activation at 1 µM amounted to 44%. For `C[C@@H]([C@H]1CC[C@H]2[C@@H]3CC=C4C[C@@H](O)CC[C@]4(C)[C@H]3CC[C@]12C)C(C)(C)O` the same measures were 4% and 24%.

Take `CC(O)CC[C@@H](C)[C@H]1CC[C@H]2[C@@H]3CC=C4C[C@@H](O)CC[C@]4(C)[C@H]3CC[C@]12C` (stereo partly drawn): the activation at 0.1 µM came out at 42% and the activation at 1 µM was 98%. In the same order, the values of `C[C@H](CCC(C)(C)O)[C@H]1CC[C@H]2[C@@H]3CC=C4C[C@](C)(O)CC[C@]4(C)[C@H]3CC[C@]12C` are 13% and 60%. For `C[C@H](CCC(C)(C)N)[C@H]1CC[C@H]2[C@@H]3CC=C4C[C@@H](O)CC[C@]4(C)[C@H]3CC[C@]12C`, the activation at 0.1 µM was -8% and the activation at 1 µM is -19%.

On to `CC[C@]1(O)CC[C@@]2(C)C(=CC[C@H]3[C@@H]4CC[C@H]([C@H](C)CCC(C)(C)O)[C@@]4(C)CC[C@@H]32)C1`, for which the activation at 0.1 µM is 181% and the activation at 1 µM worked out at 286%. For the molecule `CC[C@@]1(O)CC[C@@]2(C)C(=CC[C@H]3[C@@H]4CC[C@H]([C@H](C)CCC(C)(C)O)[C@@]4(C)CC[C@@H]32)C1`, the activation at 0.1 µM stood at 23% and the activation at 1 µM was 139%. As for `CNC(C)(C)CC[C@@H](C)[C@H]1CC[C@H]2[C@@H]3CC=C4C[C@@H](O)CC[C@]4(C)[C@H]3CC[C@]12C`, the activation at 0.1 µM amounted to 25% and the activation at 1 µM is 19%. Consider `C[C@H](CCC(C)(C)O)[C@H]1CC[C@H]2[C@@H]3CC[C@H]4C[C@@](C)(O)CC[C@@H]4[C@H]3CC[C@]12C`, for which the activation at 0.1 µM is 25% and the activation at 1 µM was found to be 114%. For `C[C@H](CCC(C)(C)O)[C@H]1CC[C@H]2[C@@H]3CC[C@H]4C[C@](C)(O)CC[C@@H]4[C@H]3CC[C@]12C` the same measures were 21% and 52%.

With `C[C@H](CCC(C)(C)O)[C@H]1CC[C@H]2[C@@H]3CC[C@H]4C[C@](O)(C(F)(F)F)CC[C@@H]4[C@H]3CC[C@]12C`, the activation at 0.1 µM amounted to 14% and the activation at 1 µM worked out at 85%. In the same order, the values of `C[C@H](CCC(C)(C)O)[C@H]1CC[C@H]2[C@@H]3CC[C@H]4C[C@@H](O)CC[C@]4(C)[C@H]3CC[C@]12C` are 18% and 85%. As for `C[C@H](CCC(C)(C)O)[C@H]1CC[C@H]2[C@@H]3CC[C@H]4C[C@](O)(C(F)(F)F)CC[C@]4(C)[C@H]3CC[C@]12C`, the activation at 0.1 µM worked out at 59% and the activation at 1 µM turned out to be 172%.

As to `C[C@H](CCC(C)(C)O)[C@H]1CC[C@H]2[C@@H]3CC[C@H]4C[C@](C)(O)CC[C@]4(C)[C@H]3CC[C@]12C`, the activation at 0.1 µM came to 19% and the activation at 1 µM came out at 30%. As to `C[C@H](CCC(C)(C)O)[C@H]1CC[C@H]2[C@@H]3CC[C@H]4C[C@@](C)(O)CC[C@]4(C)[C@H]3CC[C@]12C`, the activation at 0.1 µM was 87%. For `C[C@H](CC(C)(C)O)[C@H]1CC[C@H]2[C@@H]3CC=C4C[C@@H](O)CC[C@]4(C)[C@H]3CC[C@]12C`, the activation at 0.1 µM was -5% and the activation at 1 µM came to 27%.

For the molecule `CC(C)[C@H](O)CC[C@@H](C)[C@H]1CC[C@H]2[C@@H]3CC=C4C[C@@H](O)CC[C@]4(C)[C@H]3CC[C@]12C`, the activation at 0.1 µM came out at 82% and the activation at 1 µM is 137%. As for `C[C@H](CCC(C)(C)O)[C@H]1CC[C@H]2[C@@H]3CC[C@@H]4C[C@@](O)(C(F)(F)F)CC[C@]4(C)[C@H]3CC[C@]12C`, the activation at 0.1 µM was 9% and the activation at 1 µM was determined as 18%. With `COC[C@@]1(O)CC[C@@]2(C)[C@@H](CC[C@@H]3[C@@H]2CC[C@]2(C)[C@@H]([C@H](C)CCC(C)(C)O)CC[C@@H]32)C1`, the activation at 0.1 µM came to 8% and the activation at 1 µM is 25%. With `COC[C@]1(O)CC[C@@]2(C)[C@@H](CC[C@@H]3[C@@H]2CC[C@]2(C)[C@@H]([C@H](C)CCC(C)(C)O)CC[C@@H]32)C1`, the activation at 0.1 µM turned out to be 14% and the activation at 1 µM was 110%. As for `CC(C)(O)CCC[C@H]1CCC2C3CC[C@H]4C[C@@](C)(O)CC[C@]4(C)C3CC[C@@]21C` (stereo partly drawn), the activation at 0.1 µM stood at 17% and the activation at 1 µM came to 105%. Turning to `CC(C)(O)CCO[C@H]1CCC2C3CC[C@H]4C[C@@](C)(O)CC[C@]4(C)C3CC[C@@]21C` (stereo partly drawn), the activation at 0.1 µM is 6% and the activation at 1 µM is 27%. As for `CC(C)(O)COC[C@H]1CCC2C3CC=C4C[C@@](C)(O)CC[C@]4(C)C3CC[C@@]21C` (stereo partly drawn), the activation at 0.1 µM was -5% and the activation at 1 µM was -14%. For the molecule `CC(CCC(C)(C)O)[C@H]1CC[C@H]2[C@@H]3CC=C4C[C@@H](O)CC[C@]4(C)[C@H]3CC[C@]12C` (stereo partly drawn) [Compound 1], the activation at 0.1 µM was determined as 55% and the activation at 1 µM came to 197%.
